The source of these data is article PMC12136037, “Type II kinase inhibitors that target Parkinson’s disease–associated LRRK2” (Science Advances, 2025).

“And” between values parts separate entries of the source, which are not always exact repeats. Equal values may be shown once.

Assay [1] concerns the target T1, LRRK2^RCKW (Homo sapiens, UniProt Q5S007).
T1 construct: LRRK2 R1327 to E2527; His6-Z-tag (TEV cleavable) (N, cleaved yes); host or cells: Sf9 insect cells (baculovirus)
T1 sequence (Q5S007 1327-2527): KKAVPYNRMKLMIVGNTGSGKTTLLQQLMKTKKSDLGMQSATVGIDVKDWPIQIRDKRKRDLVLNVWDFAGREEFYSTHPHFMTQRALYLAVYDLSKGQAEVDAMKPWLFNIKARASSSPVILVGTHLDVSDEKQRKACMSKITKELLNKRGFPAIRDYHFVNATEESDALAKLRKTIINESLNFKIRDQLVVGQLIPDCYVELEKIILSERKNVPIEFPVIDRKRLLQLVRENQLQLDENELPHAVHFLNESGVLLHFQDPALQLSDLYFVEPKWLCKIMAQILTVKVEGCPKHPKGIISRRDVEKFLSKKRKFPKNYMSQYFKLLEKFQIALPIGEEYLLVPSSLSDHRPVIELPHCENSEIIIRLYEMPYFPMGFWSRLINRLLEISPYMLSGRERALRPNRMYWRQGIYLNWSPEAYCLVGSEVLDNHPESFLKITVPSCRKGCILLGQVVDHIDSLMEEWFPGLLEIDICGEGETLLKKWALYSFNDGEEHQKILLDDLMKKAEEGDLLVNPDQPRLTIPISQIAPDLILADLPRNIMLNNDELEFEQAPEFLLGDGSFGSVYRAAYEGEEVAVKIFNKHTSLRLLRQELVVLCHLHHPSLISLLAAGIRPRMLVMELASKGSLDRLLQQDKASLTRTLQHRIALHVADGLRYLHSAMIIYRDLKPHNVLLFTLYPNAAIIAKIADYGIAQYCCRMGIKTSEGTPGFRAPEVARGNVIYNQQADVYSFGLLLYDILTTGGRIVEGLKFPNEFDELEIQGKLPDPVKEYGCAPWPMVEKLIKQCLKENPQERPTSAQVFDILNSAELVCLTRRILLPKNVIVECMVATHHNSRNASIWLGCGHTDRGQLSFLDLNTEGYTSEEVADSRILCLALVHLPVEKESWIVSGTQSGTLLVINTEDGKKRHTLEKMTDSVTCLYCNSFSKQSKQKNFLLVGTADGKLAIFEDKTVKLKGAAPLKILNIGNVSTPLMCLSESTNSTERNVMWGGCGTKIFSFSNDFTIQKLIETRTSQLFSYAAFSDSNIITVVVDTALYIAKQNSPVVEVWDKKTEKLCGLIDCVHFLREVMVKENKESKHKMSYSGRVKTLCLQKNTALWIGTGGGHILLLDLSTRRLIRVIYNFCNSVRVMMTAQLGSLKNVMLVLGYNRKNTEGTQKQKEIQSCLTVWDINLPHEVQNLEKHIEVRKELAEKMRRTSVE
The assay can be described thus: Biochemical LRRK2 activity assay (PhosphoSense, AssayQuant SOX peptide AQT0615). Conditions: for IC50: LRRK2^RCKW kinase activity, in vitro; for normalized response (LRRK2 activity): normalized to 0% (no kinase) and 100% (no inhibitor) control, two singlicate columns per compound. Summed up: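 Controls lacked protein and compound (0%) or compound only (100%). IC50 derived by nonlinear regression of normalized response versus log[inhibitor].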

The target in assay [2] is T2, LRRK2^KW (Homo sapiens, UniProt Q5S007).
T2 construct: LRRK2 R1847 to E2527; His6-Z-tag (TEV cleavable) (N, cleaved yes); host or cells: Sf9 insect cells (baculovirus)
T2 sequence (Q5S007 1847-2527): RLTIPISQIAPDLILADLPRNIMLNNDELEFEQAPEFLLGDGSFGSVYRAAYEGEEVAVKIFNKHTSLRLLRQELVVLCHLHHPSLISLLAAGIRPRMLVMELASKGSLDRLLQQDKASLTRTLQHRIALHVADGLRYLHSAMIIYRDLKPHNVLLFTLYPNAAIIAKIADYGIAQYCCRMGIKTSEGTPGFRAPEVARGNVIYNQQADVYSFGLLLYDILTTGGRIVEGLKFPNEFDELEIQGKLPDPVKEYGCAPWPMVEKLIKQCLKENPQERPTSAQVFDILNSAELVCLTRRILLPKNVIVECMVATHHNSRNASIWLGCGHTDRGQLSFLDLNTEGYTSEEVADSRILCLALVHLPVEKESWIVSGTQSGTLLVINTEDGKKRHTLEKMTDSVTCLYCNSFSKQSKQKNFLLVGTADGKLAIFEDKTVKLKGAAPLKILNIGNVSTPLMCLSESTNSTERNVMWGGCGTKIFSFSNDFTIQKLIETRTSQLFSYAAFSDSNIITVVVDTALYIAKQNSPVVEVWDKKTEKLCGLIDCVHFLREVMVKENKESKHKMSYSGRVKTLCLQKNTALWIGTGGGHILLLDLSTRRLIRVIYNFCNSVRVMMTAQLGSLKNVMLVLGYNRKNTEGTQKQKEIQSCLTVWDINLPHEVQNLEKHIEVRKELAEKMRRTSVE
The assay can be described thus: DSF thermal stabilization of LRRK2^KW. Conditions: for ∆Tm (K): DSF, LRRK2^KW, 10 μM inhibitor. Format: binding. Summed up:
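DSF on 4 μM LRRK2^KW in 20 mM Hepes pH 7.4, 150 mM NaCl, 0.5 mM TCEP, 0.5% glycerol, 20 μM GDP, 2.5 mM MgCl2 with SYPRO Orange; inhibitor at 10 μM. Tm was taken as the minimum of the first derivative of fluorescence versus temperature, relative to control.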

Consider `Cc1ccc(-n2nc(C(C)(C)C)cc2NC(=O)Nc2cccc(-c3c[nH]c4nc(Cl)nc(N5CCOCC5)c34)c2)cc1` [Compound 30], for which the IC50 (as a rule, the concentration that gives 50% inhibition) in assay [1] is 135 ± 2 nM. Further, the “normalized response (LRRK2 activity)” value in assay [1] (log[inhibitor(mol)] -5.12494) is -8.095% and -6.809%; in assay [1] (log[inhibitor(mol)] -5.60206), 75.5755% and 70.6669%; in assay [1] (log[inhibitor(mol)] -6.30103) it was 8.742% and 11.7467%; in assay [1] (log[inhibitor(mol)] -6.90309), 50.7191% and 51.183%; in assay [1] (log[inhibitor(mol)] -7.30103) it was 75.6682% and 82.0657%; in assay [1] (log[inhibitor(mol)] -7.60206), 86.9301% and 90.6015%. Moreover, the “normalized response (LRRK2 activity)” value in assay [1] (log[inhibitor(mol)] -8.09691) was 94.0388% and 92.0065%; in assay [1] (log[inhibitor(mol)] -8.61979), 101.276% and 93.5219%; in assay [1] (log[inhibitor(mol)] -9.09691) it was 104.187% and 96.8267%; in assay [1] (log[inhibitor(mol)] -9.39794), 100.869% and 63.9823%. Further, the results for the “∆Tm (K)” value in assay [2] (listed as 30 (RN277)) and in assay [2] (listed as RN277) were 18.0 K and 18 K, respectively.
In assay [1], `CC(=O)N1CCN(c2nc(Cl)nc3[nH]cc(-c4cccc(NC(=O)Nc5cc(C(C)(C)C)nn5-c5ccc(C)cc5)c4)c23)CC1` [Compound 31] came in with a half-maximal inhibitory concentration (IC50) of 82.4 ± 19 nM. In addition, the “normalized response (LRRK2 activity)” value is -8.142% and -8.098% in assay [1] (log[inhibitor(mol)] -5.12494); -6.069% and -3.667% in assay [1] (log[inhibitor(mol)] -5.60206); 1.516% and 5.662% in assay [1] (log[inhibitor(mol)] -6.30103); 27.0499% and 37.6124% in assay [1] (log[inhibitor(mol)] -6.90309); 59.8343% and 70.8356% in assay [1] (log[inhibitor(mol)] -7.30103); 80.8168% and 85.4399% in assay [1] (log[inhibitor(mol)] -7.60206). Besides, the “normalized response (LRRK2 activity)” value in assay [1] (log[inhibitor(mol)] -8.09691) was 99.1997% and 109.801%; in assay [1] (log[inhibitor(mol)] -8.61979), 111.451% and 122.71%; in assay [1] (log[inhibitor(mol)] -9.09691) it was 117.928% and 123.215%; in assay [1] (log[inhibitor(mol)] -9.39794), 115.57% and 119.935%. In assay [2], the “∆Tm (K)” value is 18.0 K.
`CCSc1nc(NC)c2c(-c3cccc(NC(=O)Nc4cc(C(C)(C)C)nn4-c4ccc(C)cc4)c3)c[nH]c2n1` [Compound 32] displayed an IC50 in assay [1] of 296 ± 39 nM. Further, the “normalized response (LRRK2 activity)” value in assay [1] (log[inhibitor(mol)] -5.12494) was -7.459% and -2.016%; in assay [1] (log[inhibitor(mol)] -5.60206) it was 19.5756% and 16.293%; in assay [1] (log[inhibitor(mol)] -6.30103), 31.5753% and 35.852%; in assay [1] (log[inhibitor(mol)] -6.90309) it was 72.0233% and 73.3531%; in assay [1] (log[inhibitor(mol)] -7.30103) it was 83.8241% and 86.8594%; in assay [1] (log[inhibitor(mol)] -7.60206), 89.687% and 98.7972%. Also, the “normalized response (LRRK2 activity)” value in assay [1] (log[inhibitor(mol)] -8.09691) is 90.4381% and 87.8004%; in assay [1] (log[inhibitor(mol)] -8.61979), 96.4865% and 91.0964%; in assay [1] (log[inhibitor(mol)] -9.09691), 94.4983% and 98.9209%; in assay [1] (log[inhibitor(mol)] -9.39794) it was 96.9901% and 60.5361%. The results for the “∆Tm (K)” value in assay [2] (listed as 32 (RN341)) and in assay [2] (listed as RN341) were 19.9 K and 20 K, respectively.
In assay [1], `COc1cc(C(=O)N2CCOCC2)c(F)cc1Nc1nc(N(C)C)c2c(Cl)c[nH]c2n1` [Compound 36] returned a concentration for half-maximal inhibition (IC50) of 4.96 ± 0.11 nM. For the same compound, the “normalized response (LRRK2 activity)” value in assay [1] (log[inhibitor(mol)] -5.12494) is -4.747% and -10.7141%; in assay [1] (log[inhibitor(mol)] -5.60206), -11.8877% and -7.237%; in assay [1] (log[inhibitor(mol)] -6.30103), -22.7354% and -19.8398%; in assay [1] (log[inhibitor(mol)] -6.90309) it was -16.5877% and -9.211%; in assay [1] (log[inhibitor(mol)] -7.30103), -3.623% and 0.9398%; in assay [1] (log[inhibitor(mol)] -7.60206), 12.0233% and 5.13%. The “normalized response (LRRK2 activity)” value in assay [1] (log[inhibitor(mol)] -8.09691) was 39.1206% and 42.4988%; in assay [1] (log[inhibitor(mol)] -8.61979), 81.2335% and 75.689%; in assay [1] (log[inhibitor(mol)] -9.09691), 74.4661% and 78.5518%; in assay [1] (log[inhibitor(mol)] -9.39794), 100.642% and 97.3515%. Also, in assay [2], the “∆Tm (K)” value was determined as 16.0 K.
For `COc1cc2c(Oc3ccc(NC(=O)C4(C(=O)Nc5ccc(F)cc5)CC4)cc3F)ccnc2cc1OCCCN1CCOCC1` [Foretinib, reference compound], the “normalized response (LRRK2 activity)” value was -8.307% and -10.693% in assay [1] (log[inhibitor(mol)] -5.12494); -1.8523% and 5.65% in assay [1] (log[inhibitor(mol)] -5.60206); 28.3235% and 31.8978% in assay [1] (log[inhibitor(mol)] -6.30103); 69.5315% and 73.0571% in assay [1] (log[inhibitor(mol)] -6.90309); 85.8697% and 90.8136% in assay [1] (log[inhibitor(mol)] -7.30103); 93.5528% and 93.9107% in assay [1] (log[inhibitor(mol)] -7.60206). Besides, the “normalized response (LRRK2 activity)” value was 88.4499% and 91.6177% in assay [1] (log[inhibitor(mol)] -8.09691); 92.1788% and 92.8283% in assay [1] (log[inhibitor(mol)] -8.61979); 95.8547% and 84.8889% in assay [1] (log[inhibitor(mol)] -9.09691); 98.1654% and 60.9912% in assay [1] (log[inhibitor(mol)] -9.39794). Besides, the “∆Tm (K)” value in assay [2] was 12.1 ± 0.1 K. Besides, in assay [2] (screen of 31 type-II inhibitors, Table S1), the “dTm LRRK2(KW) [K]” value is recorded as 11.5 K.
With `Cc1ccc(C(=O)Nc2ccc(CN3CCN(C)CC3)c(C(F)(F)F)c2)cc1C#Cc1cnc2[nH]ncc2c1` [GZD-824, reference compound], the “normalized response (LRRK2 activity)” value in assay [1] (log[inhibitor(mol)] -4.82391) was 37.9506% and 22.443%; in assay [1] (log[inhibitor(mol)] -5.12494), 2.902% and -0.761%; in assay [1] (log[inhibitor(mol)] -6.30103), -12.6856% and -11.6517%; in assay [1] (log[inhibitor(mol)] -6.90309), -14.8328% and -12.1996%; in assay [1] (log[inhibitor(mol)] -7.30103), -10.7195% and -10.9051%; in assay [1] (log[inhibitor(mol)] -7.60206), -2.449% and -0.1425%. The “normalized response (LRRK2 activity)” value was 77.0511% and 75.7389% in assay [1] (log[inhibitor(mol)] -8.09691); 100.887% and 96.9327% in assay [1] (log[inhibitor(mol)] -8.61979); 102.124% and 93.9328% in assay [1] (log[inhibitor(mol)] -9.09691); 100.847% and 103.781% in assay [1] (log[inhibitor(mol)] -9.39794). The “∆Tm (K)” value in assay [2] is 21.2 ± 2.5 K.
